Patent US12631623B2, “Heart tissue model” (IMBA—INSTITUT FÜR MOLEKULARE BIOTECHNOLOGIE GMBH, priority 2020, dated 2026)
Entries after “also recorded” stand apart in the source; their conditions may differ.

What was measured:
[1] = tested on: cardiac organoids (hPSC-derived, WTC MYL7-GFP/CDH5-Tomato)
Protocol: Generation of cardiac organoids with endothelial lining—Pluripotency maintenance medium was refreshed 6 h prior to seeding cells. Then, 2500-3000 hPSC were seeded into ultra-low cluster 96-well plates (Corning) in FLyAB(Ins) medium with CHIR (5-6 μM) and ROCKi (5 μM) for 36 h-40 h.
In order to stop endothelial cell differentiation, 100 nM sunitinib malate (Biovision, #1611) was added from the cardiac mesoderm stage (BFIIWPRa) onward.
Flow cytometry—Cells were dissociated using the CM dissociation kit (Stem Cell Technologies, #05025). After centrifugation for 3 min at 130 g, cells were resuspended in 300 μl PBS supplemented with 0.5 mM EDTA (Biological Industries, #01-862-1B) and 10% FBS (PAA Laboratories, #A15-108). Cells were acquired with a FACS LSR Fortessa II (BD) and analysed with FlowJo V10 (FlowJo, LLC) software. FACS sorting was performed using a Sony SH800 Cell Sorter (Sony Biotechnology).

[2] = tested on: cardiac organoids (hPSC-derived); experiment: Reporter imaging / immunostaining of cardiomyocyte and endothelial cell organisation in cardiac organoids; assay type: cell-based, human; conditions: for EC lining of cavity: VEGF(-A) added after CM specification stage; for separation of CM and EC layers: VEGF(-A) included at cardiac mesoderm stage; for organization of cardiomyocytes and endothelial cells: Wnt-inhibitor during differentiation, CHIR99021 5 μM or 6 μM; for location of endothelial cell layer: with VEGF
Protocol: (§1) Immunostaining—Following fixation with 4% PFA (Sigma-Aldrich, #16005) specimens were washed twice in 1×PBS and the 3D constructs additionally once in PBS/Tween20 (0.1%, Sigma-Aldrich, #P1379) for at least 15 min each. Tissues were incubated in blocking solution consisting of PBS (Gibco, #14190094) with 4% goat (Bio-Rad Laboratories, #C07SA) or donkey serum (Bio-Rad Laboratories, #C06SB) and 0.2% Triton X-100 (Sigma-Aldrich, #T8787) for at least 15 minutes. The primary antibody was subsequently applied in above blocking buffer for 1-3 hours at room temperature or overnight at 4° C. in the case of the 2D samples and 2 days at 4° C. on a shaker for 3D samples. Following washing twice with PBS/Tween20, 3D tissues were incubated with the secondary antibody solution at 4° C. on a shaker for 2 more days while 2D samples were incubated up to 2 hours at room temperature. Following these washing steps and an additional PBS wash, tissues were ready for analysis or storage at 4° C. in PBS, while slides were mounted using fluorescence mounting medium (Dako Agilent Pathology Solutions, #S3023). 3D tissues were cleared with FocusClear (CellExplorer Labs, #FC-101) prior to imaging.
(§2) Image acquisition and analysis—Fixed whole mounts and sections were imaged with point scanning (upright Zeiss LSM800 Axio Imager with an Apochromat 20× objective lens at 1× magnification) and spinning disk confocal microscopes (Olympus spinning disk system based on a IX3 Series (IX83) inverted microscope, equipped with a Yokogawa W1 spinning disc), or a widefield microscope (Zeiss Axio Imager 2, Axio Vert A1, Panoramic FLASH 250 II System). Live imaging experiments were performed using a Zeiss Celldiscoverer 7 or above-mentioned spinning disk microscope. For high-throughput imaging and analysis, images were taken with a Celigo Imaging Cytometer microscope (Nexcelom Biosciences, LLC) and analyzed with custom-made scripts written for the FIJI software. Sections for transmission electron microscopy were examined with aFEI Morgagni 268D TEM (FEI, Eindhoven, The Netherlands) operated at 80 kV. Images were acquired using an 11 megapixel Morada CCD camera (Olympus-SIS).

cardioids (hPSC-derived) [3] = experiment: High-throughput imaging of cardioid diameter and cavity expansion at the cardiac mesoderm stage (day 3.5); assay type: cell-based, human; conditions: for cardiac mesoderm density / cell number per cardioid: BMP inhibition with Noggin or LDN193189, initial two days of cardiac mesoderm stage; for cavity expansion / cavity morphogenesis / organoid/cardioid diameter (size): Noggin 100 ng/ml or LDN193189 0.2 μM, initial two days of cardiac mesoderm stage
Protocol: as §2
We next used cardioids to dissect how signaling controls intrinsic morphogenesis and patterning during cardioid specification. To quantify phenotypes with high statistical power, we combined the high-throughput cardioid platform with a custom-made semi-automated imaging/analysis FIJI-pipeline. Using this setup, we examined which signals control cardioid self-organization and at what stage of mesodermal specification they act. We first systematically tested the effects of key mesoderm and cardiac mesoderm signaling dosages (e. g. WNT, BMP) on cardiac cavity self-morphogenesis. […] An intermediate WNT dosage promoted both cavity morphogenesis and CM specification. The optimal WNT activation range was consistent for each hPSC line but differed across lines, consistent with numerous studies showing line-specific signaling responses. Importantly, the highest WNT dosage promoted cavity formation without CM specification (FIG. 16A), highlighting a striking difference in signaling control of cell-fate specification versus morphogenesis.

[4] = tested on: cardiac mesoderm cavity structures (cardioids); experiment: Dextran incorporation assay in cardioids; assay type: cell-based, human; conditions: low-molecular-weight (4 kDa) dextran, cardiac mesoderm stage
Protocol: Dextran and Fluo-4 incorporation assays—A 4.4 kDa Dextran conjugated with TAMRA (Sigma Aldrich, T1037) was added to the cardioid culture between 64 h and 90 h. Cardioids were live imaged as cavities started to form. To image and analyze calcium-transients, 3D cardioids and 2D CM were loaded with Fluo-4 AM (Thermo Fisher Scientific, #F14217). After a 15-min incubation, cardioids were incubated for another 15 min in Tyrode's salt solution (Sigma Aldrich, #T2397). Subsequently, cardioids were imaged live and videos were analyzed with FIJI software (Schindelin et al., 2012, Nature Methods 9, 676-682) to acquire the signal intensity (F) of regions of interest and background (F0).

cardioids (hPSC-derived) [5] = experiment: RNA-seq gene expression of cardioids induced with high vs low CHIR99021; assay type: cell-based, human
Protocol: RNA isolation and RNA-seq/Smart-Seq2/single-cell (sc)RNA-seq preparation—RNA was isolated with the RNeasy Mini Kit (Qiagen, #74104). Generation of the bulk RNA-seq libraries was performed according to the manufacturer's instructions with QuantSeq 3′ mRNA-Seq Library Prep Kit FWD (Lexogen GmbH, #015). After the preparation of the libraries, samples were checked for an adequate size distribution with a fragment analyzer (Advanced Analytical Technologies, Inc) and were submitted to the Vienna Biocenter Core Facilities (VBCF) Next-Generation-Sequencing (NGS) facility for sequencing. For Smart-Seq2 analysis, 400 cells were sorted into lysis buffer and stored at −80° C. until further processing. […]
Bioinformatic analysis—Trimming was performed for Smart-Seq2 experiments using trim-galore v0.5.0 and for QuantSeq 3′ mRNA-Seq experiments using BBDuk v38.06 (ref=polyA.fa.gz,truseq.fa.gz k=13 ktrim=r useshortkmers=t mink=5 qtrim=r trimq=10 minlength=20). Reads mapping to abundant sequences included in the iGenomes UCSC hg38 reference (human rDNA, human mitochondrial chromosome, phiX174 genome, adapter) were removed using bowtie2 v2.3.4.1 alignment. Remaining reads were analyzed using genome and UCSC gene annotation provided in the iGenomes UCSC hg38 bundle (support.illumina.com/sequencing/sequencingsoftware/igenome.html). […]

hPSCs (WTC MYH10-GFP) = experiment: Mesoderm induction of hPSC aggregates (T / SOX2 staining); assay type: cell-based, human; conditions: 8 uM CHIR99021, 40 h of mesoderm induction, 1000 hPSCs
Protocol: as §1

[6] = +Sunitinib (100 μM [sic]), end of differentiation day 7.5

## CCN(CC)CCNC(=O)c1c(C)[nH]c(/C=C2\C(=O)Nc3ccc(F)cc32)c1C [Sunitinib]
[1]; [6]
  MYL7-GFP expressing cardiomyocytes: 96%
  cells expressing the endothelial marker CDH5-Tomato: 3%
[1]; Sunitinib 100 nM in the first 10 days of differentiation or longer
  cardiomyocytes in organoids: over 95%

## VEGF
[1]; VEGF 200 ng/ml at cardiac mesoderm stage, intermediate WNT activation
  cardiomyocytes (MYL7+) in organoids: ~41%
[1]; VEGF 200 ng/ml at cardiac mesoderm stage, intermediate WNT activation, listed as VEGF-A
  endothelial cells (CDH5+) in organoids: 53%
[2]; VEGF during cardiac mesoderm stage, no WNT inhibition
  cell composition of cardioid-like structures: containing only ECs and fibroblast-like cells without CMs; also recorded: contained primarily ECs and COL1A1^+ cells, without CMs
[2]
  EC lining of cavity: occasionally led to partial EC lining of cavities but often also to ECs forming a partial outside layer
  separation of CM and EC layers: separate into a CM and an EC layer with a space between them
[2]; listed as VEGF-A
  EC lining of cavity: occasionally observed formation of an EC layer lining the cardioid cavity
  separation of CM and EC layers: separated into CM and EC layers

## Oc1nc(-c2ccc(C(F)(F)F)cc2)nc2c1CSCC2 [XAV939]
[2]
  organization of cardiomyocytes and endothelial cells: two-layered organization

## c1ccc2c(-c3cnn4cc(-c5ccc(N6CCNCC6)cc5)cnc34)ccnc2c1 [LDN193189]
Cardioids (hPSC-derived) [3]
  cardiac mesoderm density: denser cardiac mesoderm
  cell number per cardioid: remained stable
  cavity expansion / cavity morphogenesis: interfere with cavity expansion; also recorded: impaired cavity morphogenesis
Cardioids (hPSC-derived) [3]; day 3.5
  organoid/cardioid diameter (size): significantly decreased diameter; also recorded: reduces cardioid diameter; also recorded: decreased cardioid size

## Cc1ccc2nc(NC(=O)CSc3nc4c(c(=O)n3-c3ccccc3)SCC4)sc2c1 [IWP2]
[2]
  organization of cardiomyocytes and endothelial cells: two-layered organization

## O=C(Nc1cccc2cccnc12)c1ccc(N2C(=O)[C@@H]3[C@H](C2=O)[C@@H]2C=C[C@H]3C2)cc1 [IWR-1]
[2]
  organization of cardiomyocytes and endothelial cells: two-layered organization

## dextran
[4]
  permeability of cavity structures: impermeable
[4]; listed as dextrans
  permeability of cavity structures: not permeable

## Cc1c[nH]c(-c2cnc(NCCNc3ccc(C#N)cn3)nc2-c2ccc(Cl)cc2Cl)n1 [CHIR99021]
Cardioids (hPSC-derived) [5]; 4 μM CHIR99021 during mesoderm induction vs 8 μM
  EC genes (PECAM1, CDH5, VEGFA, TAL1, LMO2, ETV2) expression: upregulated; also recorded: higher expression of EC-specifying genes
Cardioids (hPSC-derived) [5]; 8 μM during mesoderm induction (cavity-forming conditions)
  BMP target genes (HAND1, IRX3, BMP4, BMP2, BMPR2) expression: upregulated
Cardioids (hPSC-derived) [3]; increased CHIR99021 during mesoderm induction, HAND1 KO (H9), d3.5
  cavity defect of HAND1 KO organoids: rescues cavity defect in HAND1 KO organoids
Cardioids (hPSC-derived) [3]; range of CHIR99021 concentrations during mesoderm induction, day 3.5
  cardioid diameter / lumen expansion as function of CHIR99021 dosage: dramatic effects on cardioid diameter; also recorded: striking effects on lumen expansion
[2]; 4 uM CHIR99021 during induction, d27, WTC MYL7-GFP
  endothelial lining of cavities: lining of internal cavities by endothelial (CD31+) cells
[2]; 4 μM CHIR condition
  apoptosis (cleaved caspase 3 staining): increased levels inside the EC ring
[2]; 6 μM CHIR condition
  apoptosis (cleaved caspase 3 staining): low levels of apoptosis
[2]; high WNT activity, 5-8 μM CHIR during mesoderm induction
  location of endothelial cell layer: compartment/lining around the cardiomyocytes
[2]; lower WNT activity, 4 μM (1-4 μM) CHIR during mesoderm induction
  location of endothelial cell layer: inner ring of EC expressing CD31
[2]; lower WNT activity, 4 μM (1-4 μM) CHIR during mesoderm induction, listed as CHIR
  location of endothelial cell layer: inside lining facing the cavity
hPSCs (WTC MYH10-GFP)
  exit from pluripotency (T up, SOX2 down): efficiently exited pluripotency

B1: BMP4: bone morphogenetic protein 4 (protein, UniProt P12644 293-408, looked up)
Bone morphogenetic protein 4: SPKHHSQRARKKNKNCRRHSLYVDFSDVGWNDWIVAPPGYQAFYCHGDCPFPLADHLNSTNHAIVQTLVNSVNSSIPKACCVPTELSAISMLYLDEYDKVVLKNYQEMVVEGCGCR
Cardioids (hPSC-derived) [3]; BMP signalling dosage at cardiac mesoderm stage, higher levels of BMP4
  cavity expansion: drove cavity expansion

B2: Noggin (protein, UniProt Q13253 28-232, looked up)
Noggin: QHYLHIRPAPSDNLPLVDLIEHPDPIFDPKEKDLNETLLRSLLGGHYDPGFMATSPPEDRPGGGGGAAGGAEDLAELDQLLRQRPSGAMPSEIKGLEFSEGLAQGKKQRLSKKLRRKLQMWLWSQTFCPVLYAWNDLGSRFWPRYVKVGSCFSKRSCSVPEGMVCKPSKSVHLTVLRWRCQRRGGQRCGWIPIQYPIISECKCSC
Cardioids (hPSC-derived) [3]
  cardiac mesoderm density: denser cardiac mesoderm
  cell number per cardioid: remained stable
  cavity expansion / cavity morphogenesis: interfere with cavity expansion; also recorded: heavily impaired cavity expansion; also recorded: impaired cavity morphogenesis
Cardioids (hPSC-derived) [3]; day 3.5
  organoid/cardioid diameter (size): significantly decreased diameter; also recorded: reduces cardioid diameter; also recorded: decreased cardioid size
